# Entries after “also recorded” stand apart in the source; their conditions may differ.
# Columns and labels:
# bacteria = assay: antibacterial efficacy by cup scrub method on humans against the composition without TCC; assay type: in vivo
# Protocol: Using the formulation of Example 1 or Example 2 but with varying amounts of TCC, the amide wherein R is cocoyl, p is 2 and n is 1, and the alcohol wherein R′ is lauryl and q is 7, antibacterial efficacy is measured using a cup scrub method on humans against the composition without TCC.
# [1] = stability of TCC in body cleansing composition (precipitate/crystals on storage); assay type: physicochemical; conditions: for Comments (precipitate/crystals of TCC): 0.15% TCC in body cleansing composition
# Description: Further work on the usefulness of this invention may be seen in the stability data of Example 5. TCC at 0.15% was incorporated in a body cleansing composition of (which may also include the types described above). using Promidium CO alone and in combination with Laureth-7.
Compound,effect of presence on antibacterial efficacy (bacteria; presence of Promidium Co and/or laureth-7 in the composition),"log reduction of bacteria (bacteria; TCC in the compositions, measured against a composition without TCC)","Comments (precipitate/crystals of TCC) ([1]; Promidium CO 0.675%, Laureth-7 0.675%)","Comments (precipitate/crystals of TCC) ([1]; Promidium CO 3.0%, Laureth-7 0.0%)",time for which no precipitate or crystals were observed ([1]; body cleansing composition with combination of Promidium CO and Laureth-7)
PPG-2 hydroxyethyl cocoamide [Promidium CO],does not significantly affect antibacterial efficacy,,,,
"O=C(Nc1ccc(Cl)cc1)Nc1ccc(Cl)c(Cl)c1 [TCC, 3,4,4′-trichlorocarbanilide]",,greater than 1 log,no precipitate or crystals were observed; also recorded: No Precipitate or crystals even,precipitate/crystals of TCC were observed at the bottom of the container after 4-5 weeks; also recorded: Precipitate/Crystals in 4-5 Weeks,≥ 13 weeks

# Reference: patent US20040121936A1, “Composition” (Colgate-Palmolive Company, priority 2001, published 2004)
